This passage reports IC50 results from patent US8362008B2 (The University Of Edinburgh, priority 2007, dated 2013).

T1 sequence (P28845 whole entry): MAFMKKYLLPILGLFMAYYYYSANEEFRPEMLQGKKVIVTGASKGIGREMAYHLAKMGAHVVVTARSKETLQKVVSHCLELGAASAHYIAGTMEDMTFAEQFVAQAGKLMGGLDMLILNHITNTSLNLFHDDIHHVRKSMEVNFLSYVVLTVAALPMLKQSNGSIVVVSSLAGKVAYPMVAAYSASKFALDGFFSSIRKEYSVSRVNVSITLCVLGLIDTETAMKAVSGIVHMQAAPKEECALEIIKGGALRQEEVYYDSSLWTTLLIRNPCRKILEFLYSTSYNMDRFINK

One test has as its target T1, human 11β-HSD1 enzyme (Homo sapiens, UniProt P28845).
T1 construct: stably transfected with a construct containing the full-length gene coding for the human 11β-HSD1 enzyme; expressed in transfected cells; host or cells: HEK293 (HEK293/11β-HSD1 cells)
Description: Cellular in vitro 11β-HSD1 enzyme inhibition assay (SPA, HEK293/11β-HSD1 cells). The class given is cell-based. As to conditions: HEK293, less than or equal to 1000 nM (1 μM). Here is the method: Cellular In Vitro 11β-HSD1 Enzyme Inhibition Assay
Compounds were assessed by a Scintillation Proximity Assay (SPA) performed according to the following protocol:
HEK293 cells were stably transfected with a construct containing the full-length gene coding for the human 11β-HSD1 enzyme to create HEK293/11β-HSD1 cells. Cells were routinely cultured in DMEM containing 10% calf foetal serum, 1% glutamine, and 1% penicillin and streptomycin. Prior to assay, cells were plated at 2×10^4 cells/well in 96-well poly-D-Lys coated flat-bottomed microplates and incubated in 5% CO2, 95% O2 at 37° C. for 24 hours. The media in each well was removed immediately before assay.
Compounds to be tested were dissolved in DMSO at 10 mM and serially diluted into water containing 10% DMSO. Diluted compounds at a volume of 10 μL were added to wells of a 96-well V-bottomed microplate. […] This solution (100 μL/well) was transferred to the plate containing the cells. The plate was then incubated in 5% CO2, 95% O2 at 37° C. for 2 hours.
Following this incubation, 50 μL of the assay solution was transferred to each well of a 96-well scintillation microplate. A mixture consisting of anti-mouse YSi SPA beads, pre-mixed with anti-cortisol antibody in assay buffer (50 mM Tris.HCl, pH 7.0; 300 mM NaCl; 1 mM EDTA, 5% glycerol) was prepared and 50 μL added to each well of the scintillation microplate. An adhesive strip was applied to the microplate and the plate gently shaken for at least 2 hours at room temperature, and then spun briefly on a low speed centrifuge. The plate was read on a scintillation counter suitable for 96-well microplates. For the calculation of percentage inhibition, a series of wells were added to the plate that represented the assay maximum and the assay minimum: one set that contained substrate without cells (mimimum) and another set that contained substrate and cells without any compound (maximum).
The calculation of median inhibitory concentration (IC50) values for the compounds was performed using GraphPad Prism® software. Dose-response curves for each compound were plotted as fractional inhibition and data fitted to the four parameter logistic equation.
For orientation: IC50 means the point on the concentration scale where inhibition reaches its midpoint. The low end stands for higher potency, the high end for lower potency. Consider `O=C(c1csc(C2CCOCC2)c1)N1CCC[C@@H]2CCCC[C@@H]21` (racemic) [CC-027, cis-(octahydro-quinolin-1-yl)-[5-(tetrahydro-pyran-4-yl)-thiophen-3-yl]-methanone], for which the IC50 is at most 1 µM.
Still for that read-out and setting: with `O=C(c1cccnc1)N1CCC(c2cc(C(=O)N3CCCC4CCCCC43)cs2)CC1` (stereo not shown) [CC-103] the figure was at most 1 µM.
The compound `CC(=O)N1CC=C(c2cc(C(=O)N3CCCC4CCCCC43)cs2)CC1` (stereo not shown) [CC-086] gave an IC50 of at most 1 µM.
Same read-out and setting: with `CC1(C)CC2CC(C)(CN2C(=O)c2csc(C3CCNCC3)c2)C1` (single isomer, unassigned) [CC-075, (5-Piperidin-4-yl-thiophen-3-yl)-(1,3,3-trimethyl-6-aza-bicyclo[3.2.1]oct-6-yl)-methanone] the figure was at most 1 µM; with `COCc1cc(C(=O)N2CC3(C)CC2CC(C)(C)C3)cs1` (stereo not shown) [BB-006], at most 1 µM; with `O=C(c1csc(C2CCOCC2)c1)N1CCCCCC1` [CC-004], at most 1 µM.
Regarding `CC(=O)N1CCC(c2cc(C(=O)N3CCCCC(C)(C)C3)cs2)CC1` [CC-026], the IC50 is at most 1 µM.
The compound `CS(=O)(=O)NCC(=O)N1CCC(c2cc(C(=O)N3CCCC4CCCCC43)cs2)CC1` (stereo not shown) [CC-148] returned an IC50 of at most 1 µM.
In turn, `NC(=O)N1CCC(c2cc(C(=O)N3CCC[C@@H]4CCCC[C@@H]43)cs2)CC1` (relative stereo) [CC-068, cis-4-[4-(Octahydro-quinoline-1-carbonyl)-thiophen-2-yl]-piperidine-1-carboxylic acid amide] displayed an IC50 of at most 1 µM.
For `N#CCc1cc(C(=O)N2CCC[C@@H]3CCCC[C@@H]32)cs1` (relative stereo) [AA-022, cis-[4-(Octahydro-quinoline-1-carbonyl)-thiophen-2-yl]-acetonitrile], the IC50 was at most 1 µM.
The same measure, in the same setting: with `CC1(C)CCCN(C(=O)c2csc(C3CCN(C(=O)CCNS(C)(=O)=O)CC3)c2)CC1` [CC-097] the figure was at most 1 µM; with `CNC(=O)C(C)(C)N1CCC(c2cc(C(=O)N3CCCC4CCCCC43)cs2)CC1` (stereo not shown) [CC-171], at most 1 µM.

The test is the same for the next values; noted with them: HEK293, more than 1000 nM (1.0 μM) and less than or equal to 30 μM.
Take `CS(=O)(=O)NCCC(=O)N1CCC(c2cc(C(=O)N3CCCCC3c3ccccc3)cs2)CC1` (stereo not shown) [CC-128]: the concentration for half-maximal inhibition (IC50) lay in the range of 1 to 30 µM.
`O=C(CCN1CCCCC1)N1CCC(c2cc(C(=O)N3CCC[C@@H]4CCCC[C@@H]43)cs2)CC1` (relative stereo) [CC-061, cis-1-{4-[4-(Octahydro-quinoline-1-carbonyl)-thiophen-2-yl]-piperidin-1-yl}-3-piperidin-1-yl-propan-1-one] displayed an IC50 of 1 to 30 µM.
`CC1(C)CCCN(C(=O)c2csc(C3CCCNC3)c2)C1` (stereo not shown) [CC-014] showed an IC50 of 1 to 30 µM.
With `CC1CCCCN1C(=O)c1csc(C2CCOCC2)c1` (stereo not shown) [CC-002], the IC50 is 1 to 30 µM.
For `O=C(CO)N1CCC(c2cc(C(=O)N3CCCCC3c3ccccc3)cs2)CC1` (stereo not shown) [CC-102], the IC50 is 1 to 30 µM.
Take `CNCC(=O)N1CCC(c2cc(C(=O)N3CCCC4CCCCC43)cs2)CC1` (stereo not shown) [CC-056]: the IC50 is 1 to 30 µM.
Take `COCCCC(=O)N1CCC(c2cc(C(=O)N3CCCC4CCCCC43)cs2)CC1` (stereo not shown) [CC-085]: the IC50 lay in the range of 1 to 30 µM.
Still for that read-out and setting: as for `O=C(c1csc(C2CCCNC2)c1)N1CCCC2CCCCC21` (stereo not shown) [CC-043], the figure is 1 to 30 µM.
In the case of `O=C(CCCN1CCCCC1)N1CCC(c2cc(C(=O)N3CCCC4CCCCC43)cs2)CC1` (stereo not shown) [CC-082], the half-maximal inhibitory concentration (IC50) is 1 to 30 µM.
`CCc1cc(C(=O)N2CCCC(F)(F)CC2)cs1` [AA-020]: the IC50 was 1 to 30 µM.
The compound `CC1(C)CCCN(C(=O)c2csc(C3CCN(CC(N)=O)CC3)c2)CC1` [CC-139] gave an IC50 of 1 to 30 µM.
`O=C(c1csc(C2CCNCC2)c1)N1CCCC2(CCCCC2)C1` [CC-079]: the IC50 is 1 to 30 µM.
Still for that read-out and setting: with `CCc1cc(C(=O)N2CCC3CCCCC3C2)cs1` (stereo not shown) [AA-010] the figure was 1 to 30 µM; with `O=C(c1csc(C2CCCNC2)c1)N1CCCC2(CCCCC2)C1` (stereo not shown) [CC-080], 1 to 30 µM.
Compound `CN(C)CC(=O)N1CCC(c2cc(C(=O)N3CCCC4CCCCC43)cs2)CC1` (stereo not shown) [CC-063] yielded an IC50 of 1 to 30 µM.
Same read-out and setting: as for `O=C(c1csc(C2CCNCC2)c1)N1CCCCC1c1ccccn1` (stereo not shown) [CC-012], the figure is 1 to 30 µM.
